Source: patent US10736883B2, “Triazole furan compounds as agonists of the APJ receptor” (AMGEN INC., priority 2016, dated 2020)

Target: APJ receptor (Homo sapiens (Human), UniProt P35414)
Assay: [35S]GTPγS binding assay on membranes from CHO cells stably expressing human APJ receptor
Assay type: biochemical
Settings: membranes of CHO cells stably expressing human APJ receptor, means of several independent experiments, read-out: Activity hAPJ SPA EC50 IP
How it was run: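 Membranes from CHO cells stably expressing human APJ were incubated with 0.2 nM [35S]GTPγS and ligands for 90 min at RT in 20 mM HEPES pH 7.5, 5 mM MgCl2, 200 mM NaCl, 3 μM GDP, 0.1% BSA with WGA PS beads. Nonspecific binding was set with 100 μM GTPγS. EC50 came from non-linear regression.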

Sequence of APJ receptor (P35414 whole entry): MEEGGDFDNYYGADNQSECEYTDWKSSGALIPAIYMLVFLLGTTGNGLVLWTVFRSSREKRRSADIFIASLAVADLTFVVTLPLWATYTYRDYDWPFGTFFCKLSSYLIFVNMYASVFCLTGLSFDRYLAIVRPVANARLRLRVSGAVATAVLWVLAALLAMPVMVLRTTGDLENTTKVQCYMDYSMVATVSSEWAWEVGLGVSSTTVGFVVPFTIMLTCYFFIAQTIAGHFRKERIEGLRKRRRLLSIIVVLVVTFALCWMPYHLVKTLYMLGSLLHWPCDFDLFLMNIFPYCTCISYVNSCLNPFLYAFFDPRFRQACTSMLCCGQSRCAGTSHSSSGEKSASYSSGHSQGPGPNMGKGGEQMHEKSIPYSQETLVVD

EC50	SMILES
0.36 nM	COc1cccc(OC)c1-n1c(NS(=O)(=O)[C@H](C)Cc2cnc(C)cn2)nnc1-c1ccc(C)o1 (single isomer, unassigned) [Example 24.0, (2R)—N-(4-(2,6-dimethoxyphenyl)-5-(5-methyl-2-furanyl)-4H-1,2,4-triazol-3-yl)-1-(5-methyl-2-pyrazinyl)-2-propanesulfonamide or (2S)—N-(4-(2,6-dimethoxyphenyl)-5-(5-methyl-2-furanyl)-4H-1,2,4-triazol-3-yl)-1-(5-methyl-2-pyrazinyl)-2-propanesulfonamide]
0.37 nM	COc1cccc(OC)c1-n1c(NS(=O)(=O)[C@H](C)Cc2ccc(F)cn2)nnc1-c1ccco1 (single isomer, unassigned) [Example 25.0, (2R)—N-(4-(2,6-dimethoxyphenyl)-5-(2-furanyl)-4H-1,2,4-triazol-3-yl)-1-(5-fluoro-2-pyridinyl)-2-propanesulfonamide or (2S)—N-(4-(2,6-dimethoxyphenyl)-5-(2-furanyl)-4H-1,2,4-triazol-3-yl)-1-(5-fluoro-2-pyridinyl)-2-propanesulfonamide]
1.2 nM	COc1cccc(OC)c1-n1c(NS(=O)(=O)[C@H](C)Cc2ccc(C#N)cn2)nnc1-c1ccco1 (single isomer, unassigned) [Example 30.0, (2R)-1-(5-cyano-2-pyridinyl)-N-(4-(2,6-dimethoxyphenyl)-5-(2-furanyl)-4H-1,2,4-triazol-3-yl)-2-propanesulfonamide or (2S)-1-(5-cyano-2-pyridinyl)-N-(4-(2,6-dimethoxyphenyl)-5-(2-furanyl)-4H-1,2,4-triazol-3-yl)-2-propanesulfonamide]
1.9 nM	COc1cccc(OC)c1-n1c(NS(=O)(=O)[C@H](C)Cc2ccc(C)nn2)nnc1-c1ccc(C)o1 (single isomer, unassigned) [Example 31.0, (2R)—N-(4-(2,6-dimethoxyphenyl)-5-(5-methyl-2-furanyl)-4H-1,2,4-triazol-3-yl)-1-(6-methyl-3-pyridazinyl)-2-propanesulfonamide or (2S)—N-(4-(2,6-dimethoxyphenyl)-5-(5-methyl-2-furanyl)-4H-1,2,4-triazol-3-yl)-1-(6-methyl-3-pyridazinyl)-2-propanesulfonamide]
2.3 nM	COc1cccc(OC)c1-n1c(NS(=O)(=O)[C@H](C)Cc2cnc(C)cn2)nnc1-c1ccco1 (single isomer, unassigned) [Example 32.0, (2R)—N-(4-(2,6-dimethoxyphenyl)-5-(2-furanyl)-4H-1,2,4-triazol-3-yl)-1-(5-methyl-2-pyrazinyl)-2-propanesulfonamide or (2S)—N-(4-(2,6-dimethoxyphenyl)-5-(2-furanyl)-4H-1,2,4-triazol-3-yl)-1-(5-methyl-2-pyrazinyl)-2-propanesulfonamide]
2.4 nM	COc1cccc(OC)c1-n1c(NS(=O)(=O)[C@H](C)Cc2ccc(C#N)cn2)nnc1-c1ccc(C)o1 (single isomer, unassigned) [Example 33.0, (2R)-1-(5-cyano-2-pyridinyl)-N-(4-(2,6-dimethoxyphenyl)-5-(5-methyl-2-furanyl)-4H-1,2,4-triazol-3-yl)-2-propanesulfonamide or (2S)-1-(5-cyano-2-pyridinyl)-N-(4-(2,6-dimethoxyphenyl)-5-(5-methyl-2-furanyl)-4H-1,2,4-triazol-3-yl)-2-propanesulfonamide]
3.6 nM	COc1cccc(OC)c1-n1c(NS(=O)(=O)[C@H](C)Cc2ncc(Cl)cn2)nnc1-c1ccco1 (single isomer, unassigned) [Example 37.0, (2R)-1-(5-chloro-2-pyrimidinyl)-N-(4-(2,6-dimethoxyphenyl)-5-(2-furanyl)-4H-1,2,4-triazol-3-yl)-2-propanesulfonamide or (2S)-1-(5-chloro-2-pyrimidinyl)-N-(4-(2,6-dimethoxyphenyl)-5-(2-furanyl)-4H-1,2,4-triazol-3-yl)-2-propanesulfonamide]
3.8 nM	COc1cccc(OC)c1-n1c(NS(=O)(=O)[C@@H](C)Cc2cnc(C)cn2)nnc1-c1ccc(C)o1 (single isomer, unassigned) [Example 38.0, (2S)—N-(4-(2,6-dimethoxyphenyl)-5-(5-methyl-2-furanyl)-4H-1,2,4-triazol-3-yl)-1-(5-methyl-2-pyrazinyl)-2-propanesulfonamide or (2R)—N-(4-(2,6-dimethoxyphenyl)-5-(5-methyl-2-furanyl)-4H-1,2,4-triazol-3-yl)-1-(5-methyl-2-pyrazinyl)-2-propanesulfonamide]
11 nM	COc1cccc(OC)c1-n1c(NS(=O)(=O)[C@@H](C)[C@H](O)c2ccc(C#N)cn2)nnc1-c1ccc(C)o1 (single isomer, unassigned) [Example 40.0, (1R,2S)-1-(5-cyano-2-pyridinyl)-N-(4-(2,6-dimethoxyphenyl)-5-(5-methyl-2-furanyl)-4H-1,2,4-triazol-3-yl)-1-hydroxy-2-propanesulfonamide or (1S,2R)-1-(5-cyano-2-pyridinyl)-N-(4-(2,6-dimethoxyphenyl)-5-(5-methyl-2-furanyl)-4H-1,2,4-triazol-3-yl)-1-hydroxy-2-propanesulfonamide]
12 nM	COc1cccc(OC)c1-n1c(NS(=O)(=O)[C@H](C)Cc2ccc(C)nn2)nnc1-c1ccco1 (single isomer, unassigned) [Example 42.0, (2R)—N-(4-(2,6-dimethoxyphenyl)-5-(2-furanyl)-4H-1,2,4-triazol-3-yl)-1-(6-methyl-3-pyridazinyl)-2-propanesulfonamide or (2S)—N-(4-(2,6-dimethoxyphenyl)-5-(2-furanyl)-4H-1,2,4-triazol-3-yl)-1-(6-methyl-3-pyridazinyl)-2-propanesulfonamide]
25 nM	COc1cccc(OC)c1-n1c(NS(=O)(=O)[C@H](C)Cc2ccc(C)nn2)nnc1-c1ccc(C)o1 (single isomer, unassigned) [Example 43.0, (2R)—N-(4-(2,6-dimethoxyphenyl)-5-(5-methyl-2-furanyl)-4H-1,2,4-triazol-3-yl)-1-(6-methyl-3-pyridazinyl)-2-propanesulfonamide or (2S)—N-(4-(2,6-dimethoxyphenyl)-5-(5-methyl-2-furanyl)-4H-1,2,4-triazol-3-yl)-1-(6-methyl-3-pyridazinyl)-2-propanesulfonamide]
44 nM	COc1cccc(OC)c1-n1c(NS(=O)(=O)[C@H](C)Cc2ccncn2)nnc1-c1ccco1 (single isomer, unassigned) [Example 44.0, (2R)—N-(4-(2,6-dimethoxyphenyl)-5-(2-furanyl)-4H-1,2,4-triazol-3-yl)-1-(4-pyrimidinyl)-2-propanesulfonamide or (2S)—N-(4-(2,6-dimethoxyphenyl)-5-(2-furanyl)-4H-1,2,4-triazol-3-yl)-1-(4-pyrimidinyl)-2-propanesulfonamide]
72 nM	COc1cccc(OC)c1-n1c(NS(=O)(=O)[C@H](C)Cc2cncnc2)nnc1-c1ccco1 (single isomer, unassigned) [Example 45.0, (2R)—N-(4-(2,6-dimethoxyphenyl)-5-(2-furanyl)-4H-1,2,4-triazol-3-yl)-1-(5-pyrimidinyl)-2-propanesulfonamide or (2S)—N-(4-(2,6-dimethoxyphenyl)-5-(2-furanyl)-4H-1,2,4-triazol-3-yl)-1-(5-pyrimidinyl)-2-propanesulfonamide]
300 nM	COc1cccc(OC)c1-n1c(NS(=O)(=O)[C@H](C)Cc2ccncn2)nnc1-c1ccco1 (single isomer, unassigned) [Example 46.0, (2R)—N-(4-(2,6-dimethoxyphenyl)-5-(2-furanyl)-4H-1,2,4-triazol-3-yl)-1-(4-pyrimidinyl)-2-propanesulfonamide or (2S)—N-(4-(2,6-dimethoxyphenyl)-5-(2-furanyl)-4H-1,2,4-triazol-3-yl)-1-(4-pyrimidinyl)-2-propanesulfonamide]
0.11 nM	COc1cccc(OC)c1-n1c(NS(=O)(=O)[C@@H](C)[C@@H](O)c2ccc(F)cn2)nnc1-c1ccc(C)o1 (single isomer, unassigned) [Example 57.0]
0.13 nM	COc1cccc(OC)c1-n1c(NS(=O)(=O)C[C@H](O)c2ccc(C#N)cn2)nnc1-c1ccc(C)o1 (single isomer, unassigned) [Example 58.0, (2R)-2-(5-cyano-2-pyridinyl)-N-(4-(2,6-dimethoxyphenyl)-5-(5-methyl-2-furanyl)-4H-1,2,4-triazol-3-yl)-2-hydroxyethanesulfonamide or (2S)-2-(5-cyano-2-pyridinyl)-N-(4-(2,6-dimethoxyphenyl)-5-(5-methyl-2-furanyl)-4H-1,2,4-triazol-3-yl)-2-hydroxyethanesulfonamide]
0.16 nM	COc1cccc(OC)c1-n1c(NS(=O)(=O)[C@@H](C)[C@@H](O)c2ccc(F)cn2)nnc1-c1ccc(C)o1 (single isomer, unassigned) [Example 59.0]

SMILES	EC50
COc1cccc(OC)c1-n1c(NS(=O)(=O)[C@H](C)Cc2ncc(Br)cn2)nnc1-c1ccco1 (single isomer, unassigned) [Example 36.0, (2R)-1-(5-bromo-2-pyrimidinyl)-N-(4-(2,6-dimethoxyphenyl)-5-(2-furanyl)-4H-1,2,4-triazol-3-yl)-2-propanesulfonamide or (2S)-1-(5-bromo-2-pyrimidinyl)-N-(4-(2,6-dimethoxyphenyl)-5-(2-furanyl)-4H-1,2,4-triazol-3-yl)-2-propanesulfonamide]	3.5 nM
COc1cccc(OC)c1-n1c(NS(=O)(=O)[C@@H](C)[C@@H](O)c2coc(C)n2)nnc1-c1ccc(C)o1 (single isomer, unassigned) [Example 55.0, (1S,2S)—N-(4-(2,6-dimethoxyphenyl)-5-(5-methyl-2-furanyl)-4H-1,2,4-triazol-3-yl)-1-hydroxy-1-(2-methyl-1,3-oxazol-4-yl)-2-propanesulfonamide or (1R,2R)—N-(4-(2,6-dimethoxyphenyl)-5-(5-methyl-2-furanyl)-4H-1,2,4-triazol-3-yl)-1-hydroxy-1-(2-methyl-1,3-oxazol-4-yl)-2-propanesulfonamide]	28 nM
